Test results taken from patent publication US11214574B2, “Selective inhibitors of protein arginine methyltransferase 5 (PRMT5)” (Prelude Therapeutics, Incorporated, priority 2018, dated 2022).

Experiments:
[1] = system: sDMA marks (SmD3me2s) in Granta-519 cells; experiment: Western blotting for symmetric di-methyl arginine (sDMA) marks in Granta-519 cells; type: cell-based; details: Homo sapiens, 72 h; Granta-519 cell line (values in square brackets), 3 days treatment
Protocol: Cell Treatment and Western Blotting for Detecting Symmetric Di-Methyl Arginine (sDMA) Marks
Compound titration and cell culture: Compounds were dissolved in DMSO to make 10 mM stock and 3-fold series dilutions were further conducted to make working stocks top at 1 mM. Granta-519 cells were maintained in PRMI 1640 (Corning Cellgro, Catalog #: 10-040-CV) supplemented with 10% v/v FBS (GE Healthcare, Catalog #: SH30910.03) and U-87 MG cells were maintained in DMEM (Corning Cellgro, Catalog #: 10-013-CV) with 10% FBS and 2 mM Glutamin (Corning Cellgro, Catalog #25005CV).
To determine enzyme inhibition IC50 values in Granta-519 and U-87 MG cells using Western Blot analysis. One day before experiment, Granta-519 cells were passaged to a density of 0.5×10^6 cells/ml. U-87 MG cells were trypsinized and 4×10^5 cells were seeded into 6-well plates and allow to grow overnight. […]
Cells were harvested 3 days later, resuspended in 15 uL PBS, lysed in 4% SDS, and homogenized by passing through homogenizer column (Omega Biotek, Catalog #: HCR003). Total protein concentrations were determined by BCA assay (ThermoFisher Scientific, Catalog #: 23225). […] SmD3me2s bands were quantified by ImageJ. […] IC50 values were calculated using Graphpad Prism ([Inhibitor] vs. normalized response—Variable slope).

[2] = system: γ-globin expression in K562 cells; experiment: γ-globin induction by quantitative PCR in K562 cells; type: cell-based; details: 0.1 μM, 6 days, N=1
Protocol: Compounds were dissolved in DMSO to make 10 mM stock solutions, and further diluted to make 1 mM and 0.1 mM stocks.
K562 cells were purchased from ATCC and maintained in Iscove's DMEM (Corning Cellgro, Catalog #15-016-CVR) supplemented with 10% v/v FBS (GE Healthcare, Catalog #: SH30910.03) in a CO2 incubator (5% CO2) at 37° C. Cells were plated at a density of 5×10^5 cells/ml and treated with compound at final concentrations of 0.1 and 1 μM. Media and compound were renewed after 3 days in culture and cells were collected for RNA isolation after 6 days of treatment.
Assessment of γ-Globin Induction by Quantitative PCR
RNA was isolated using Quick-RNA Microprep kit (Zymo Research, Catalog #Z1050), cDNA was synthesized using qScript cDNA SuperMix (Quantabio, Catalog #95048). Quantitative PCR for γ-globin was performed using PerfeCTa SYBR Green FastMix (Quantabio, Catalog #95071) on Bio-Rad CFX Connect Real-Time PCR Detection System. Gene expression analysis was performed using CFX Manager software.
Assessment of γ-Globin Induction by Quantitative PCR in K562 Cells
Compounds were dissolved in DMSO to make 10 mM stock solutions, and further diluted to make 1 mM and 0.1 mM stocks. K562 cells were purchased from ATCC and maintained in Iscove's DMEM (Corning Cellgro, Catalog #15-016-CVR) supplemented with 10% v/v FBS (GE Healthcare, Catalog #: SH30910.03) in a CO2 incubator (5% CO2) at 37° C. […]

PRMT5/MEP50 complex = PRMT5/MEP50 complex (Homo sapiens (Human), UniProt O14744); experiment: PRMT5 biochemical assay (SPA, 3H-SAM); details: PRMT5/MEP50 2.5 nM, 300 nM AcH4-23 substrate, 1 μM 3H-SAM
Protocol: Biochemical Assay Protocol
Compounds were solubilized and 3-fold diluted in 100% DMSO. […] Standard reactions were performed in a total volume of 30 μl in assay buffer, with 300 nM histone H4 based AcH4-23 (Anaspec: AS-65002) as substrate. To this was added the PRMT5/MEP50 complex diluted to provide a final assay concentration of 2.5 nM and the compounds were allowed to preincubate for 20 minutes at 37° C. The reaction was initiated by adding S-[3H-methyl]-adenosyl-L-methionine (PerkinElmer: NET155001MC) to final concentration of 1 μM. Following a 30 minutes incubation at 37° C., the reaction was stopped by adding 25 μL of 8M Guanidine HCl. Prepare streptavidin YSI SPA beads (Perkinelmer: RPNQ0012) at 0.3 mg/mL in assay buffer. To each reaction, add 150 μL of SPA beads suspension, and incubated while shaking at room temperature for 30 minutes. The plate was centrifuged at 100×g for 30 second before reading in a scintillation counter. IC50 values were determined by fitting the data to the standard 4 parameters with Hill Slope using GraphPad Prism software.

PRMT5/MEP50 complex, sequence (O14744 whole entry): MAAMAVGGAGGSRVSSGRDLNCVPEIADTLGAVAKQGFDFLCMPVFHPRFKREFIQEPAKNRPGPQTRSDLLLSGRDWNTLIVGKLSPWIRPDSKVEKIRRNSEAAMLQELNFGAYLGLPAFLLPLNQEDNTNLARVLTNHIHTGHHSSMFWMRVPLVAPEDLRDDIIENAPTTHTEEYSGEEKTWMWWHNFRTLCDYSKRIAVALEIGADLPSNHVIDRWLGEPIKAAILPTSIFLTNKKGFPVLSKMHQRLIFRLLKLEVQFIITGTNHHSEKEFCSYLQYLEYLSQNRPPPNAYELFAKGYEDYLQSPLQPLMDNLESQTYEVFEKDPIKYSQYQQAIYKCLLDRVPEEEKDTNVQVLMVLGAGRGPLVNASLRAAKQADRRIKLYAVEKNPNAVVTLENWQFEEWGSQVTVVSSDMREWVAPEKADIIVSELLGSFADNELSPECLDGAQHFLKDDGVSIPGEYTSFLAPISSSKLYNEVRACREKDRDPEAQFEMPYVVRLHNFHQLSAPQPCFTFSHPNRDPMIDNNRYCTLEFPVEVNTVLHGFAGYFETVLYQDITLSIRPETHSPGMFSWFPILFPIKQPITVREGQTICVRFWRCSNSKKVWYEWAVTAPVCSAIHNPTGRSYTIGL
PRMT5/MEP50 complex, sequence (Q9BQA1 whole entry partner): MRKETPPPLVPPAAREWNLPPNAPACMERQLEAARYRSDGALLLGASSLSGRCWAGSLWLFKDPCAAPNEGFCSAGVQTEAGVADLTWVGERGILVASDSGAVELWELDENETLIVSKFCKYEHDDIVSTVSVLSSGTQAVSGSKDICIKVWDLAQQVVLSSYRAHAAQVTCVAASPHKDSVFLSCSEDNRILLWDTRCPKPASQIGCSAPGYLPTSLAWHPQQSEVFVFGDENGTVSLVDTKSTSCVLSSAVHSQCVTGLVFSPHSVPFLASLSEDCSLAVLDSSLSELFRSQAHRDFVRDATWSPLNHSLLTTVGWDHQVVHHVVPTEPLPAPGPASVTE

`Nc1ncnc2c1ccn2[C@@H]1C[C@H]([C@H]2OCc3cc(Cl)ccc32)[C@@H](O)[C@H]1O` [Example 2A, (1R,2S,3R,5S)-3-(4-amino-7H-pyrrolo[2,3-d]pyrimidin-7-yl)-5-((R)-5-chloro-1,3-dihydroisobenzofuran-1-yl)cyclopentane-1,2-diol] gave an IC50 [1] of 0.027 µM.

For `Nc1ncnc2c1ccn2[C@@H]1O[C@H]([C@@H]2OCc3ccc(Cl)cc32)[C@@H](O)[C@H]1O` [Example 5, (2R,3R,4S,5S)-2-(4-amino-7H-pyrrolo[2,3-d]pyrimidin-7-yl)-5-((R)-6-chloro-1,3-dihydroisobenzofuran-1-yl)tetrahydrofuran-3,4-diol], the “increase in expression of γ-globin” value [2] was 3 fold.

In the case of `Nc1ncnc2c1ccn2[C@@H]1O[C@H]([C@@H]2OCOCc3cc(Cl)ccc32)[C@@H](O)[C@H]1O` [Example 81, (2R,3R,4S,5S)-2-(4-amino-7H-pyrrolo[2,3-d]pyrimidin-7-yl)-5-((R)-7-chloro-1,5-dihydrobenzo[e][1,3]dioxepin-1-yl)tetrahydrofuran-3,4-diol], the IC50 (PRMT5/MEP50 complex) is reported as 0.0415 µM.

Molecule `Cc1ncnc2c1ccn2[C@@H]1O[C@H]([C@@H]2OCCCc3cc(Cl)ccc32)[C@@H](O)[C@H]1O` [Example 101, (2S,3S,4R,5R)-2-((R)-7-chloro-1,3,4,5-tetrahydrobenzo[c]oxepin-1-yl)-5-(4-methyl-7H-pyrrolo[2,3-d]pyrimidin-7-yl)tetrahydrofuran-3,4-diol] has an IC50 (PRMT5/MEP50 complex) of 1.58 µM.
